Columns and labels:
CDK2:CCNE1 = CDK2:CCNE1 (Homo sapiens (Human), UniProt P24941); assay: NanoBRET assay in MCF-7 cells, CDK2; format: cell-based; conditions: transfected MCF-7 cells, 2 hours, n = 1 or average
Method in brief: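 In live MCF-7 cells, compound added followed by NanoBRET TE Tracer K-9 (stock 200 μM) for CDK2, 2 h at 37° C, 5% CO2.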

[1] = tested on: NPM phosphorylation (Thr199, CDK2-cyclin E complex); assay: NPM phosphorylation imaging assay in MCF-7 cells; format: cell-based; conditions: Homo sapiens, MCF7, 2 h, 4N DNA cells
Method in brief: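 MCF-7 cells were fixed, permeabilised and immunostained, then imaged for phospho-NPM (Thr199), a CDK2-cyclin E site. Analysis was gated on 4N-DNA cells by Hoechst staining. Signals were normalised to controls and fitted for IC50.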

[2] = tested on: POLR2A Ser2 phosphorylation (CDK9); assay: POLR2A Ser2 phosphorylation imaging assay in MCF-7 cells; format: cell-based; conditions: Homo sapiens, MCF7, 2 h, MCF-7 cells, 2 hours; read-out: POLR2A Ser2 phosphorylation IC50
Method in brief: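 MCF-7 cells were fixed, permeabilised and immunostained for POLR2A phospho-Ser2, then imaged by high-content microscopy. Levels were normalised to controls and IC50 values derived.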

MCF-7 cells = assay: Cellular proliferation EdU assay, MCF-7; format: cell-based; conditions: Homo sapiens, MCF7, 48 h, EdU assay, two days; read-out: MCF-7 IC50
Method in brief: (§1)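 MCF-7 (800 cells/well) and OVCAR3 (1200 cells/well) in RPMI with 10% FBS exposed to compounds for two days at 37 °C.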

OVCAR3 cells [3] = assay: Cellular proliferation EdU assay, OVCAR3; format: cell-based, human; conditions: Homo sapiens, OVCAR-3, 48 h, EdU assay, two days; read-out: OVCAR3 IC50
Method in brief: as §1

OVCAR3 cells [4] = assay: Cell proliferation CyQUANT assay, OVCAR3; format: cell-based; conditions: Homo sapiens, OVCAR-3, 168 h; CyQUANT cell counts, 7 days
Method: An imaging-based assay was used to investigate changes in cell number in OVCAR3 cells (CCNE1-amplified ovarian cancer cell line) and SKOV3 cells (non-amplified ovarian cancer cell line) treated with test compounds.
Cells were plated in 384 well plates (Perkin-Elmer 6057300) in RPMI-1640/10% FBS/1× L-Glu at 500 cells per well in 30 μL and incubated with test compound at 37° C. and 5% CO2 for 7 days. Cells were then stained using the CyQuant Direct Cell Proliferation Assay Kit (Thermo Cat #C7026) in accordance with the kit protocol. The stained cells were imaged using an Operetta high content imager to generate cell counts and IC50 values were calculated relative to DMSO controls.

IC50 (CDK2:CCNE1) [nM]	IC50 [1] [nM]	IC50 [2] [µM]	IC50 (MCF-7 cells) [nM]	IC50 (OVCAR3 cells [3]) [nM]	IC50 (OVCAR3 cells [4]) [nM]	SMILES
18	233	6.5	969	457	–	CCn1cnc2c(N[C@H]3CCN(S(=O)(=O)NC)C3)nc(-c3cccc4c3CC[C@]4(C)O)nc21 (relative stereo) [Example 3, (S)-3-((9-ethyl-2-((R*)-1-hydroxy-1-methyl-2,3-dihydro-1H-inden-4-yl)-9H-purin-6-yl)amino)-N-methylpyrrolidine-1-sulfonamide]
9	11	3.9	–	44	53	CCn1cnc2c(N[C@@H]3CN(S(=O)(=O)c4ncc[nH]4)C[C@H]3F)nc(N[C@@H](CO)C3CC3)nc21 (relative stereo) [Example 17, (R)-2-((6-(((3R*,4R*)-1-((1H-imidazol-2-yl)sulfonyl)-4-fluoropyrrolidin-3-yl)amino)-9-ethyl-9H-purin-2-yl)amino)-2-cyclopropylethan-1-ol]
27	133	17.6	538	276	201	CCNS(=O)(=O)N1CC[C@H](Nc2nc(N[C@@H](CO)C3CC3)nc3c2ncn3C)C1 [Example 19, (S)-3-((2-(((R)-1-cyclopropyl-2-hydroxyethyl)amino)-9-methyl-9H-purin-6-yl)amino)-N-ethylpyrrolidine-1-sulfonamide]
43	241	> 30	1430	616	373	CCNS(=O)(=O)N1CC[C@H](Nc2nc(N[C@@H](CC)[C@@H](C)O)nc3c2ncn3C)C1 [Example 53, (S)—N-ethyl-3-((2-(((2R,3S)-2-hydroxypentan-3-yl)amino)-9-methyl-9H-purin-6-yl)amino)pyrrolidine-1-sulfonamide]
